US4003887A, “Novel penicillins and their preparation” (Sumitomo Chemical Company, Limited, priority 1972, dated 1977)
Converted amounts (≈) assume the structure as drawn.

system: Klebsiella pneumoniae PC1602; assay: Minimal inhibitory concentration, agar dilution method; type: cell-based; details: not given
Excerpt: When determined according to the agar dilution method, the penicillins (I) afford the minimal inhibitory concentrations against test microorganisms as shown in Table 2.

MIC	Molecule	Minimal inhibitory concentration
25 µg/mL	CC1(C)S[C@@H]2[C@H](NC(=O)C(NC(=O)c3cnc4cccnc4c3O)c3ccc(O)cc3)C(=O)N2[C@H]1C(=O)O (mixture of isomers) [Example 2, DL-α-(4-hydroxy-1,5-naphthyridine-3-carboxamido)-p-hydroxybenzylpenicillin]	–
3.13 µg/mL	CCOC(=O)Oc1ccc(C(NC(=O)c2cnc3ccc(N(C)C)nc3c2O)C(=O)N[C@@H]2C(=O)N3[C@@H]2SC(C)(C)[C@@H]3C(=O)O)cc1 (mixture of isomers) [Example 3, DL-α-(4-hydroxy-6-dimethylamino-1,5-naphthyridine-3-carboxamido)-p-ethoxycarbonyloxybenzylpenicillin]	–
25 µg/mL	CC1(C)S[C@@H]2[C@H](NC(=O)C(NC(=O)c3cnc4ccccc4c3O)c3ccc(O)cc3)C(=O)N2[C@H]1C(=O)O (mixture of isomers) [Example 6, DL-α-(4-hydroxyquinoline-3-carboxamido)-p-hydroxybenzylpenicillin]	–
> 200 µg/mL	CC1(C)S[C@@H]2[C@H](NC(=O)C(C(=O)O)c3ccccc3)C(=O)N2[C@H]1C(=O)O (stereo partly drawn) [Carbenicillin, reference compound]	–
12.5 µg/mL (≈ 23.3 µM)	CC1(C)S[C@@H]2[C@H](NC(=O)[C@H](NC(=O)c3cnc4cccnc4c3O)c3ccc(O)cc3)C(=O)N2[C@H]1C(=O)O [Example 1, D-α-(4-hydroxy-1,5-naphthyridine-3-carboxyamido)-p-hydroxybenzylpenicillin]	–
12.5 µg/mL (≈ 20.1 µM)	CC(C)(C)C(=O)Oc1ccc([C@@H](NC(=O)c2cnc3ccccc3c2O)C(=O)N[C@@H]2C(=O)N3[C@@H]2SC(C)(C)[C@@H]3C(=O)O)cc1 [Example 4, D-α-(4-hydroxyquinoline-3-carboxamido)-p-pivaloyloxybenzylpenicillin]	–
12.5 µg/mL (≈ 16.8 µM)	CCOC(=O)Oc1c(C(=O)N[C@@H](C(=O)N[C@@H]2C(=O)N3[C@@H]2SC(C)(C)[C@@H]3C(=O)O)c2ccc(OC(=O)OCc3ccccc3)cc2)cnc2cccnc12 [Example 5, D-α-(4-ethoxycarbonyloxy-1,5-naphthyridine-3-carboxamido)-p-benzyloxycarbonyloxybenzylpenicillin]	–
12.5 µg/mL (≈ 22.7 µM)	Cc1ccc2c(O)c(C(=O)N[C@@H](C(=O)N[C@@H]3C(=O)N4[C@@H]3SC(C)(C)[C@@H]4C(=O)O)c3ccc(O)cc3)cnc2n1 [Example 7, D-α-(4-hydroxy-7-methyl-1,8-naphthyridine-3-carboxamido)-p-hydroxybenzylpenicillin]	–
25 µg/mL (≈ 46.5 µM)	CC1(C)S[C@@H]2[C@H](NC(=O)[C@H](NC(=O)c3nnc4ccccc4c3O)c3ccc(O)cc3)C(=O)N2[C@H]1C(=O)O [Example 8, D-α-(4-hydroxycinnoline-3-carboxamido)-p-hydroxybenzylpenicillin]	–
12.5 µg/mL (≈ 20.5 µM)	CCOC(=O)Oc1ccc([C@@H](NC(=O)c2cnc3cccnc3c2O)C(=O)N[C@@H]2C(=O)N3[C@@H]2SC(C)(C)[C@@H]3C(=O)O)cc1 [Example 9, D-α-(4-hydroxy-1,5-naphthyridine-3-carboxamido)-p-ethoxycarbonyloxybenzylpenicillin]	–
3.13 µg/mL (≈ 4.87 µM)	CCOC(=O)Oc1ccc([C@@H](NC(=O)c2cnc3cc(Cl)ccc3c2O)C(=O)N[C@@H]2C(=O)N3[C@@H]2SC(C)(C)[C@@H]3C(=O)O)cc1 [Example 10]	–
0.78 µg/mL (≈ 1.29 µM)	CC1(C)S[C@@H]2[C@H](NC(=O)[C@H](NC(=O)c3cnc4cc(C(F)(F)F)ccc4c3O)c3ccc(O)cc3)C(=O)N2[C@H]1C(=O)O [Example 11]	–
25 µg/mL (≈ 36.7 µM)	CCOC(=O)Oc1ccc([C@@H](NC(=O)c2cnc3ccccc3c2OC(=O)OCC)C(=O)N[C@@H]2C(=O)N3[C@@H]2SC(C)(C)[C@@H]3C(=O)O)cc1 [Example 12]	–
25 µg/mL (≈ 46.6 µM)	CC1(C)S[C@@H]2[C@H](NC(=O)[C@H](NC(=O)c3cnc4ccccc4c3O)c3cccc(O)c3)C(=O)N2[C@H]1C(=O)O [Example 13]	–
25 µg/mL (≈ 43.8 µM)	CC1(C)S[C@@H]2[C@H](NC(=O)[C@H](NC(=O)c3cnc4ccccc4c3O)c3ccc(O)c(Cl)c3)C(=O)N2[C@H]1C(=O)O [Example 14]	–
12.5 µg/mL (≈ 20 µM)	CCOC(=O)Oc1ccc([C@@H](NC(=O)c2cnc3nc(C)ccc3c2O)C(=O)N[C@@H]2C(=O)N3[C@@H]2SC(C)(C)[C@@H]3C(=O)O)cc1 [Example 15]	–
25 µg/mL (≈ 46.5 µM)	CC1(C)S[C@@H]2[C@H](NC(=O)C(NC(=O)c3cnc4cccnc4c3O)c3cccc(O)c3)C(=O)N2[C@H]1C(=O)O (stereo partly drawn) [Example 16]	–
3.13 µg/mL (≈ 4.77 µM)	CCOC(=O)Oc1ccc([C@@H](NC(=O)c2cnc3ccc(SC)nc3c2O)C(=O)N[C@@H]2C(=O)N3[C@@H]2SC(C)(C)[C@@H]3C(=O)O)cc1 [Example 17]	–
12.5 µg/mL (≈ 22.7 µM)	Cc1ccc2ncc(C(=O)N[C@@H](C(=O)N[C@@H]3C(=O)N4[C@@H]3SC(C)(C)[C@@H]4C(=O)O)c3ccc(O)cc3)c(O)c2n1 [Example 18]	–
12.5 µg/mL (≈ 22 µM)	COc1ccc2ncc(C(=O)N[C@@H](C(=O)N[C@@H]3C(=O)N4[C@@H]3SC(C)(C)[C@@H]4C(=O)O)c3ccc(O)cc3)c(O)c2n1 [Example 19]	–
3.13 µg/mL (≈ 4.79 µM)	CCOC(=O)Oc1ccc([C@@H](NC(=O)c2cnc3cc([N+](=O)[O-])ccc3c2O)C(=O)N[C@@H]2C(=O)N3[C@@H]2SC(C)(C)[C@@H]3C(=O)O)cc1 [Example 20]	–
12.5 µg/mL (≈ 22.6 µM)	CC1(C)S[C@@H]2[C@H](NC(=O)[C@H](NC(=O)c3cnc4ccc(O)nc4c3O)c3ccc(O)cc3)C(=O)N2[C@H]1C(=O)O [Example 22]	–

MIC	Molecule	Minimal inhibitory concentration
25 µg/mL (≈ 37.5 µM)	CCOC(=O)Oc1ccc([C@@H](NC(=O)c2cnc3ccc(NC(C)=O)nc3c2O)C(=O)N[C@@H]2C(=O)N3[C@@H]2SC(C)(C)[C@@H]3C(=O)O)cc1 [Example 23]	–
12.5 µg/mL (≈ 22.6 µM)	CC1(C)S[C@@H]2[C@H](NC(=O)[C@H](NC(=O)c3cnc4ccc(N)nc4c3O)c3ccc(O)cc3)C(=O)N2[C@H]1C(=O)O [Example 24]	–
12.5 µg/mL (≈ 18.2 µM)	CCOC(=O)Oc1ccc([C@@H](NC(=O)c2cnc3ccc(N(C)C)nc3c2O)C(=O)N[C@@H]2C(=O)N3[C@@H]2SC(C)(C)[C@@H]3C(=O)O)cc1Cl [Example 25]	–
–	CC1(C)S[C@@H]2[C@H](NC(=O)C(NC(=O)c3cnc4cccnc4c3O)c3cccc(O)c3)C(=O)N2[C@H]1C(=O)O (stereo partly drawn) [Example 26]	25 µg/mL (≈ 46.5 µM)
12.5 µg/mL (≈ 23.3 µM)	CC1(C)S[C@@H]2[C@H](NC(=O)[C@H](NC(=O)c3cc4ccccc4nc3O)c3ccc(O)cc3)C(=O)N2[C@H]1C(=O)O [Example 27]	–
12.5 µg/mL (≈ 20.9 µM)	COc1nc(OC)c2c(O)c(C(=O)N[C@@H](C(=O)N[C@@H]3C(=O)N4[C@@H]3SC(C)(C)[C@@H]4C(=O)O)c3ccc(O)cc3)cnc2n1 [Example 28]	–
25 µg/mL (≈ 46.5 µM)	CC1(C)S[C@@H]2[C@H](NC(=O)[C@H](NC(=O)c3cnc4ccncc4c3O)c3ccc(O)cc3)C(=O)N2[C@H]1C(=O)O [Example 29]	–
12.5 µg/mL (≈ 18.3 µM)	CC(C)COC(=O)Oc1ccc([C@@H](NC(=O)c2cnc3nc(N(C)C)ncc3c2O)C(=O)N[C@@H]2C(=O)N3[C@@H]2SC(C)(C)[C@@H]3C(=O)O)cc1 [Example 30]	–
12.5 µg/mL (≈ 22.1 µM)	Cc1nc(C)c2c(O)c(C(=O)N[C@@H](C(=O)N[C@@H]3C(=O)N4[C@@H]3SC(C)(C)[C@@H]4C(=O)O)c3ccc(O)cc3)cnc2n1 [Example 31]	–
25 µg/mL (≈ 43.7 µM)	CC1(C)S[C@@H]2[C@H](NC(=O)[C@H](NC(=O)c3cnc4cccnc4c3O)c3ccc(O)c(Cl)c3)C(=O)N2[C@H]1C(=O)O [Example 32]	–
12.5 µg/mL (≈ 20.9 µM)	CCOC(=O)Oc1ccc([C@@H](NC(=O)c2cnc3cn[nH]c3c2O)C(=O)N[C@@H]2C(=O)N3[C@@H]2SC(C)(C)[C@@H]3C(=O)O)cc1 [Example 33]	–
12.5 µg/mL (≈ 23.2 µM)	CC1(C)S[C@@H]2[C@H](NC(=O)[C@H](NC(=O)c3cnc4cncnc4c3O)c3ccc(O)cc3)C(=O)N2[C@H]1C(=O)O [Example 34]	–
12.5 µg/mL (≈ 22.1 µM)	Cc1nc(C)c2ncc(C(=O)N[C@@H](C(=O)N[C@@H]3C(=O)N4[C@@H]3SC(C)(C)[C@@H]4C(=O)O)c3ccc(O)cc3)c(O)c2n1 [Example 35]	–
25 µg/mL (≈ 37.3 µM)	CCOC(=O)Oc1ccc([C@@H](NC(=O)c2cnc3c(OC)nc(OC)nc3c2O)C(=O)N[C@@H]2C(=O)N3[C@@H]2SC(C)(C)[C@@H]3C(=O)O)cc1 [Example 36]	–
12.5 µg/mL (≈ 18.3 µM)	CCOC(=O)Oc1ccc([C@@H](NC(=O)c2cnc3cccnc3c2OC(=O)OCC)C(=O)N[C@@H]2C(=O)N3[C@@H]2SC(C)(C)[C@@H]3C(=O)O)cc1 [Example 37]	–
6.25 µg/mL (≈ 9.35 µM)	CCOC(=O)Oc1ccc([C@@H](NC(=O)c2cnc3cc4c(cc3c2S)OCO4)C(=O)N[C@@H]2C(=O)N3[C@@H]2SC(C)(C)[C@@H]3C(=O)O)cc1 [Example 38]	–
6.25 µg/mL (≈ 9.99 µM)	CCOC(=O)Oc1ccc([C@@H](NC(=O)c2cnc3cccnc3c2S)C(=O)N[C@@H]2C(=O)N3[C@@H]2SC(C)(C)[C@@H]3C(=O)O)cc1 [Example 39]	–
25 µg/mL (≈ 40.2 µM)	CC1(C)S[C@@H]2[C@H](NC(=O)C(NC(=O)c3cnc4cccnc4c3S)c3cc(Cl)c(O)c(Cl)c3)C(=O)N2[C@H]1C(=O)O (stereo partly drawn) [Example 40]	–
25 µg/mL (≈ 44 µM)	COc1cnc2c(O)c(C(=O)N[C@@H](C(=O)N[C@@H]3C(=O)N4[C@@H]3SC(C)(C)[C@@H]4C(=O)O)c3ccc(O)cc3)cnc2n1 [Example 41]	–
12.5 µg/mL (≈ 20.3 µM)	CCOC(=O)Oc1ccc([C@@H](NC(=O)c2cnc3scnc3c2O)C(=O)N[C@@H]2C(=O)N3[C@@H]2SC(C)(C)[C@@H]3C(=O)O)cc1 [Example 42]	–
6.25 µg/mL (≈ 11.3 µM)	CC1(C)S[C@@H]2[C@H](NC(=O)[C@H](NC(=O)c3cnc4cccnc4c3S)c3ccc(O)cc3)C(=O)N2[C@H]1C(=O)O [Example 43]	–
–	CC1(C)S[C@@H]2[C@H](NC(=O)C(NC(=O)c3ccccn3)c3ccccc3)C(=O)N2[C@H]1C(=O)O (stereo partly drawn) [R, reference compound]	50 µg/mL (≈ 110 µM)

system: gram-positive and gram-negative bacteria; assay: not given; details: literature, words; cited from earlier work

Molecule	inhibition of growth of gram-positive and gram-negative bacteria
6 -(α-amino-isothiazolylacetamido)penicillanic acid	inhibit the growth of various gram-positive and gram-negative bacteria
6-(α-amino-thienylacetamido)penicillanic acid	inhibit the growth of various gram-positive and gram-negative bacteria

system: Pseudomonas; assay: not given; details: literature, words; cited from earlier work

Molecule	antimicrobial activity against Pseudomonas
6 -(α-amino-isothiazolylacetamido)penicillanic acid	do not exert any appreciable antimicrobial activity against Pseudomonas
6-(α-amino-thienylacetamido)penicillanic acid	do not exert any appreciable antimicrobial activity against Pseudomonas
